Counter-ions that a name gives are not always drawn.
Columns and labels:
Acinetobacter lwoffii = assay: Mixed culture on solid medium with substrate and ferric ion; type: cell-based; conditions: mixed culture with Escherichia coli
Description: (§1) The limitations of using a substrate which generates a diffusible end product after hydrolysis on a solid medium are known by those skilled in the art. […] For example a culture plate was prepared containing solid medium and the chromogenic enzyme substrate 3′,4′-dihydroxyflavone-4′-β-D-ribofuranoside along with ferric ion. A culture containing roughly equal numbers of Escherichia coli (β-D-ribofuranosidase positive) and Acinetobacter lwoffii (β-D-ribofuranosidase negative) was grown on the medium. […] The A. lwoffii colonies were colourless. It was possible to differentiate the two species even when the colonies were virtually coincident.

Escherichia coli = assay: as above; type: cell-based; conditions: mixed culture with Acinetobacter lwoffii
Description: as §1

O=c1cc(-c2ccc(OC3OC(CO)C(O)C3O)c(O)c2)oc2ccccc12 [DHF-riboside, 3′,4′-Dihydroxyflavone-4′-β-D-ribofuranoside sodium salt]
Colour of A. lwoffii colonies (Acinetobacter lwoffii): colourless | Colour of E. coli colonies (Escherichia coli): intense black colonies

Reference: US7709223B2, “Method for detecting bacteria with chromogenic substrates for β-D-ribofuranosidase” (priority 2001, dated 2010)
